The results in this text go back to patent US20040224884A1, “Methods of screening for apoptosis-controlling agents for bone anabolic therapies and uses thereof” (priority 1998, published 2004).

The target in assay [1] is T1, murine estrogen receptor-alpha (mERα) (Mus musculus, UniProt P19785).
T1 construct: expressed in transfected cells
T1 sequence (P19785 1-599): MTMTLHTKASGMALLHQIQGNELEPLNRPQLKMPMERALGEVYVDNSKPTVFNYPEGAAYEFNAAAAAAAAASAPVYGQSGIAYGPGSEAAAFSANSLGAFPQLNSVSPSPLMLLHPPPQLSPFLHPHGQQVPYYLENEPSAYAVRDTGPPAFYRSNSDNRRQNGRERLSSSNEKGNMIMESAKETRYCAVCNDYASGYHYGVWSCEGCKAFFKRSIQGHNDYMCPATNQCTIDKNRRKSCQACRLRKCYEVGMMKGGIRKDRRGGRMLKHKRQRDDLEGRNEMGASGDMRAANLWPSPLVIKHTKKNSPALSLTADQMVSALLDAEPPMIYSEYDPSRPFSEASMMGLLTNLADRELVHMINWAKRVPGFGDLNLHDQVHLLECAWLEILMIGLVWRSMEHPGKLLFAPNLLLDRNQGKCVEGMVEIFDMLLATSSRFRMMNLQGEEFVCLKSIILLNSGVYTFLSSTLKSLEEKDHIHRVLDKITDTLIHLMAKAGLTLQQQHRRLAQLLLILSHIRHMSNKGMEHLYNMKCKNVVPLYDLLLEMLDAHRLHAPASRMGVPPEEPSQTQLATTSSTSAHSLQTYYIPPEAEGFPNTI
Nature of the assay: Etoposide-induced apoptosis in HeLa cells stably transfected with mERα. In kind it is cell-based, human. The conditions noted are these: 10^−8 M, 1 h; etoposide 5×10^−5 M, 6 hour. The text has this:
(§1) CMV promoter alone and CMV promoter-driven cDNA for mERα or mErβ were stably transfected into HeLa cells. […] Cells were trypsinized, pelleted and trypan blue positive cells enumerated.
(§2) In this experiment, instead of calvaria cells, human HeLa cells which contain undetectable, if any, estrogen receptor were used. HeLa cells were stably transfected with either a CMV promoter-driven cDNA for the murine estrogen receptor-alpha (mERα) or a CMV promoter-driven cDNA for the murine estrogen receptor-beta (mERβ). […] Cells were trypsinized, pelleted and trypan blue positive cells were enumerated.

Another assay concerns wild type HeLa cells. Nature of the assay: Etoposide-induced apoptosis in wild type HeLa cells. In kind it is cell-based, human. The conditions noted are these: 10^−8 M, 1 h; etoposide 5×10^−5 M, 6 hour.
Excerpt: as §1, §2

The next assay concerns the target T2, human ERα (Homo sapiens, UniProt P03372).
T2 construct: expressed in transfected cells; host or cells: 293 human embryonic kidney cells
T2 sequence (P03372 1-595): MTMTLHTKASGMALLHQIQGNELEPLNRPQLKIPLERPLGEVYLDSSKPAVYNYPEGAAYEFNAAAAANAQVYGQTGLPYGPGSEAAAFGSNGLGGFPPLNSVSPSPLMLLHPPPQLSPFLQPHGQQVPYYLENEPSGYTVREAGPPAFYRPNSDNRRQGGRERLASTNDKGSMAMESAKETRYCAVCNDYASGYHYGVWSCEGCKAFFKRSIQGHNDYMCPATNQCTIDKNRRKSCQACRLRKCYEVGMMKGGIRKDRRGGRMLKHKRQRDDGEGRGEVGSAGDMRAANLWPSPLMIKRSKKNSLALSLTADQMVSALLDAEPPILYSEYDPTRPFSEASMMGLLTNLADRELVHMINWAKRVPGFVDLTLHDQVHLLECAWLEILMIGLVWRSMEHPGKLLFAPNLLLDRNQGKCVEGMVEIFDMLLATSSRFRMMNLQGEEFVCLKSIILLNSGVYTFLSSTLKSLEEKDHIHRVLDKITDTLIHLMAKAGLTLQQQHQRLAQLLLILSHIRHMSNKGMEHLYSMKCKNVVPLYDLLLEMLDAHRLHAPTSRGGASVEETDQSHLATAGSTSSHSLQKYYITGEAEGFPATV
Kind of assay: ERE-luciferase reporter in 293 cells overexpressing hERα. In kind it is cell-based. The conditions noted are these: 3 copies of ERE driving luciferase. The text has this: The human ERα was overexpressed in 293 cells lacking ERα along with a reporter construct containing 3 copies of a n estrogen response element driving the luciferase gene. Light units were counted and normalized to coexpressed b-galactosidase activity to control for differences in transfection efficiency. Results represent percent stimulation compared to ERα transfected cells, but not treated with the two agents. Each bar represents mean of duplicate experiments +/−SEM. *p<0.001 vs. cells not exposed to the sterols.
In this experiment, hERα was overexpressed in 293 cells (which lack constitutive ERα) along with a reporter construct containing 3 copies of an estrogen response element driving the luciferase gene. Light units were counted and normalized to coexpressed β-galactosidase activity to control for differences in transfection efficiency.

Assay [2] concerns the target T3, murine estrogen receptor-beta (mERβ) (Mus musculus, UniProt O08537).
T3 construct: expressed in transfected cells
Nature of the assay: Etoposide-induced apoptosis in HeLa cells stably transfected with mERβ. In kind it is cell-based, human. The conditions noted are these: 10^−8 M, 1 h; etoposide 5×10^−5 M, 6 hour.
Excerpt: as §1, §2

Assay [3] deals with osteoblastic cells derived from murine calvaria. Kind of assay: Etoposide-induced apoptosis of osteoblastic cells, trypan blue uptake. In kind it is cell-based. The protocol:
Osteoblastic cells derived from murine calvaria were pretreated with the sterols for 1 hour before the addition of the pro-apoptotic agent, etoposide. Apoptosis was determined after 6 hours by trypan blue uptake (Jilka et al, J. Bone and Min. Res. 13:793:802, 1998). * indicates p<0.05 versus etoposide alone, by analysis of variance (ANOVA) (Student-Newman-Keuls method).
Osteoblastic cells derived from murine calvaria were pretreated for 1 hour with the pure receptor antagonist ICI182,780 (10^−7 M) before the addition of the test agents (10^−8 M). Apoptosis was induced and quantified as described in FIG. 3. * indicates p<0.05 versus etoposide alone, by ANOVA (Student-Newman-Keuls method).
In this experiment, osteoblastic cells were derived from murine calvaria and were pretreated with the sterols for 1 hour before the addition of the pro-apoptotic agent, etoposide.
In these experiments, cells were pretreated with the indicated concentrations of the various compounds for 1 hour, in the absence or presence of the androgen receptor antagonist flutamide, before the addition of the proapoptotic agent etoposide. Apoptosis was determined after 6 hours by trypan blue uptake as described in FIG. 3.

Another assay deals with MLO-Y4 osteocytic cells. Nature of the assay: Etoposide-induced apoptosis of MLO-Y4 osteocytic cells, trypan blue uptake. Format: cell-based, murine. Here is the method: Cells were pretreated with the indicated concentrations of the compounds for 1 hour before the addition of the pro-apoptotic agent etoposide. Apoptosis was determined after 6 hour by trypan blue uptake as described in FIG. 3. * indicates p<0.05 versus etoposide alone, by ANOVA (Student-Newman-Keuls method).
MLO-Y4 cells were pretreated for 1 hour with the pure receptor antagonist ICI182,780 (10^−7 M) before the addition of the test agents (10^−8 M). Apoptosis was induced and quantified as described in FIG. 3. * indicates p<0.05 versus etoposide alone, by ANOVA (Student-Newman-Keuls method).
In this experiment, MLO-Y4 cells were pretreated with the indicated concentrations of the various compounds for 1 h before the addition of the pro-apoptotic agent, etoposide. Apoptosis was determined after 6 h by trypan blue uptake as described in FIG. 3.

Structures are written as SMILES.

T3 sequence (O08537 whole entry): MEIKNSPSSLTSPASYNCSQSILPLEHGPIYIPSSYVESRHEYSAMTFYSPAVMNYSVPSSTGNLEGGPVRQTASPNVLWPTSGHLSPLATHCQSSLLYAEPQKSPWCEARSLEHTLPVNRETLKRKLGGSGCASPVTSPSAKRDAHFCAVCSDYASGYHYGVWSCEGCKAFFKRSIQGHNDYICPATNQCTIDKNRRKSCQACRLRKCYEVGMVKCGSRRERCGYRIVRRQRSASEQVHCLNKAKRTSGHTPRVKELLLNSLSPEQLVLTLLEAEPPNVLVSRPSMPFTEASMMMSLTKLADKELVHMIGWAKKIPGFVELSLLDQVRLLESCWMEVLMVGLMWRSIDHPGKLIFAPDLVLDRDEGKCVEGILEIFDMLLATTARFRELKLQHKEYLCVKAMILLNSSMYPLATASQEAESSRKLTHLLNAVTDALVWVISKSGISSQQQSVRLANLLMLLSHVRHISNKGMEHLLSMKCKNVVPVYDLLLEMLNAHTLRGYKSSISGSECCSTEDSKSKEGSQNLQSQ

Turning to `C[C@@]12CCC[C@H]1[C@@H]1CCc3cc(O)ccc3[C@H]1CC2` [estratriene-3-ol], the “inhibition of etoposide-induced apoptosis in HeLa cells transfected with estrogen receptor α” value in assay [1] is recorded as “potently inhibited”. In addition, in the assay on wild type HeLa cells, the “effect on etoposide-induced apoptosis of wild type HeLa cells” value is on record as “none of the three compounds had any effect”. Further, the “transactivation of an estrogen response element through estrogen receptor α” value at human ERα was “did not transactivate”. For the same compound, the “inhibition of etoposide-induced apoptosis in HeLa cells transfected with estrogen receptor β” value in assay [2] is “potently inhibited”. The “potency in inhibiting apoptosis relative to 17β estradiol” value in assay [3] is “as potent a s 17β estradiol”. Also, the “inhibition of etoposide-induced osteoblastic cell apoptosis” value in assay [3] (pretreated 1 hour before etoposide, apoptosis after 6 hours by trypan blue uptake) is reported as “inhibition of etoposide-induced osteoblastic cell apoptosis was demonstrated”. In addition, the “anti-apoptotic effect on osteoblastic cells after pretreatment with ICI182,780” value in assay [3] (test agent 10^−8 M, ICI182,780 10^−7 M, 1 h pretreatment) is given as “abrogated”. The “antiapoptotic effect on osteocytes after pretreatment with ICI182,780” value in the assay with MLO-Y4 osteocytic cells (ICI182,780 10^−7 M, 1 h pretreatment) was “abrogated”. Besides, the “inhibition of etoposide-induced apoptosis of osteocytic cell line” value with MLO-Y4 osteocytic cells (MLO-Y4, pretreated 1 h before etoposide, apoptosis after 6 h) is “dose-dependently inhibited”.
